Experimental findings from patent US11884661B2, “3-substituted propionic acids as αV integrin inhibitors” (BRISTOL-MYERS SQUIBB COMPANY, priority 2016, dated 2024) are described below.

In one assay the target is human αVβ5 (Homo sapiens, UniProt P06756+P18084). The experiment in a line: human αVβ5 HTRF binding assay. The procedure: (§1) All binding assays used the HTRF (homogeneous time resolved fluorescence) technology from Cisbio International, therefore all assays are described as HTRF binding assays. The assay results for the Examples are listed above together with the characterization data. The HTRF binding assays are established for the following integrins: human αVβ6, human αVβ1, human αVβ3, human αVβ5, and human αVβ8. All assays used the following assay buffer: 20 mM Tris, pH 7.4, 1 mM MgCl2, 1 mM MnCl2, 0.01% Tween 20, and 0.01% BSA. Alternatively, a SPA-based assay was used for evaluation of receptor binding. […]
In general terms: In TR-FRET formats the signal depends on donor and acceptor labels being close together.

A further assay addresses T1, human αVβ6 (Homo sapiens, UniProt P06756+P18564).
T1 construct: purchased R & D systems 3817-AV
Kind of assay: human αVβ6 HTRF binding assay. Particulars: recombinant human αVβ6 integrin, FITC-conjugated fibronectin. The essentials:
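Biotinylated recombinant αVβ6 (1.25 nM final) incubated with FITC-fibronectin (5 nM) 1 h at RT, then streptavidin-terbium (0.625 nM) added and incubated overnight at RT in the dark before HTRF read. Buffer: 20 mM Tris pH 7.4, 1 mM MgCl2, 1 mM MnCl2, 0.01% Tween 20, 0.01% BSA.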

In a further assay the target is human αVβ3 (Homo sapiens, UniProt P05106+P06756). The experiment in a line: human αVβ3 HTRF binding assay. The procedure: (§2) All binding assays used the HTRF (homogeneous time resolved fluorescence) technology from Cisbio International, therefore all assays are described as HTRF binding assays. The assay results for the Examples are listed above together with the characterization data. The HTRF binding assays are established for the following integrins: human αVβ6, human αVβ1, human αVβ3, human αVβ5, and human αVβ8. All assays used the following assay buffer: 20 mM Tris, pH 7.4, 1 mM MgCl2, 1 mM MnCl2, 0.01% Tween 20, and 0.01% BSA. Alternatively, a SPA-based assay was used for evaluation of receptor binding.
(§3) The following describes the components and a representative procedure for the human αVβ6 HTRF binding assay: Recombinant human αVβ6 Integrin (R & D systems, 3817-AV) was biotinylated. Biotinylated human αVβ6 Integrin was added to assay vessel at a final concentration of 1.25 nM. FITC-conjugated fibronectin (Cytoskeleton, FNR02) was then added at the final concentration of 5 nM. The mixture was centrifuged at 600 rpm for three minutes using Thermo Fisher Heraeus Multifuge X3 centrifuge and then incubated at RT for an hour. Streptavidin Terbium (Cisbio international 610STLB) was then added at the final concentration of 0.625 nM. The resulting mixture was centrifuged at 600 rpm for three minutes using Thermo Fisher Heraeus Multifuge X3 centrifuge and then incubated at room temperature overnight in dark before reading HTRF signals.

A further assay has as its target human αVβ8 (Homo sapiens, UniProt P06756+P26012). The experiment in a line: human αVβ8 HTRF binding assay. Here is the method:
as §1

For another assay, the target named is human αVβ1 (Homo sapiens, UniProt P05556+P06756). The experiment in a line: human αVβ1 HTRF binding assay. The procedure:
as §2, §3

Sequence of human αVβ3 (P06756 31-992 limits assumed): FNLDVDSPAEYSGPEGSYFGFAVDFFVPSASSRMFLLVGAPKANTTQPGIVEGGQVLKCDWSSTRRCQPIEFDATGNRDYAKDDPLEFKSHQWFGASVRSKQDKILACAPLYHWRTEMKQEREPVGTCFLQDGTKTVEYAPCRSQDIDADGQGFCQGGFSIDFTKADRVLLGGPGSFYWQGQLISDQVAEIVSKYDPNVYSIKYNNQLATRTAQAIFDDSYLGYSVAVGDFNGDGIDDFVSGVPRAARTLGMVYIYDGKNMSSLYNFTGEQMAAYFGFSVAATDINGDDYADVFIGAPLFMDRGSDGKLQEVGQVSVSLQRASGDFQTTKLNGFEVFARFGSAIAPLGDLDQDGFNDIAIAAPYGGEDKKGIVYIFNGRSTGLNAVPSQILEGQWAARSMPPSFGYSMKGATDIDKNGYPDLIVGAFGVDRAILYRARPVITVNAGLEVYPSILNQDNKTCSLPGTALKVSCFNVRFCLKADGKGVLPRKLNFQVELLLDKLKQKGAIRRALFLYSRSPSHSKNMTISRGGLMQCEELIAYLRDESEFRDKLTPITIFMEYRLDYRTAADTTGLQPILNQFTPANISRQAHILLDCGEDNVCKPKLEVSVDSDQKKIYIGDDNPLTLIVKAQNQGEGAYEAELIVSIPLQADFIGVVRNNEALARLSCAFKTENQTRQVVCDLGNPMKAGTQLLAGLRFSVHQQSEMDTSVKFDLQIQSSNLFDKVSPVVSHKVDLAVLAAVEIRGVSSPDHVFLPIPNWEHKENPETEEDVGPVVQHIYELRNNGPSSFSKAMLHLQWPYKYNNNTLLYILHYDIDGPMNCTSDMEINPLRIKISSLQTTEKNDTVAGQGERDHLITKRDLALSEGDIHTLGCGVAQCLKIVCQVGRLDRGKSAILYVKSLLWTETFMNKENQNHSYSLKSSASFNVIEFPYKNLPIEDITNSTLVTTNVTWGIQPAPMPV
Sequence of human αVβ3 (P05106 27-718 limits assumed): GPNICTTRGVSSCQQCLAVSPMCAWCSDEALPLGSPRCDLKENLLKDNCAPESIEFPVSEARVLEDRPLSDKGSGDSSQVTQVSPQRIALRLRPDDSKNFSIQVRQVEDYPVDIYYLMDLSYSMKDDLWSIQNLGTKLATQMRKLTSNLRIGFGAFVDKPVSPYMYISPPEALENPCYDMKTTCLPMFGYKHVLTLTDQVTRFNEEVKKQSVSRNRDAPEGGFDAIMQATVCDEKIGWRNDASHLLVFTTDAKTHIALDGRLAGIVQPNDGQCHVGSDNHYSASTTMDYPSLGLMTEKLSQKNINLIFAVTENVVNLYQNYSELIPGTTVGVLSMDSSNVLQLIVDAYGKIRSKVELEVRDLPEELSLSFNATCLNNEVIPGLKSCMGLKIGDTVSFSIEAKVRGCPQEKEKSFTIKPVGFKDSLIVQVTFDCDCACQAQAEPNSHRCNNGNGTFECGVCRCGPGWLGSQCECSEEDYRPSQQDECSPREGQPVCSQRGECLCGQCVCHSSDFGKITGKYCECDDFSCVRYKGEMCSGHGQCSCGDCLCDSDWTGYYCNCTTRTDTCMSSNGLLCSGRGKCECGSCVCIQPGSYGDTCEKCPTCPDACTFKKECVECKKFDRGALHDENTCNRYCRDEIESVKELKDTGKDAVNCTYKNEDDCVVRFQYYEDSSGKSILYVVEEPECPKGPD
Sequence of human αVβ1 (P06756 31-992 limits assumed): as the sequence (P06756 31-992 limits assumed) above
Sequence of human αVβ1 (P05556 21-728 limits assumed): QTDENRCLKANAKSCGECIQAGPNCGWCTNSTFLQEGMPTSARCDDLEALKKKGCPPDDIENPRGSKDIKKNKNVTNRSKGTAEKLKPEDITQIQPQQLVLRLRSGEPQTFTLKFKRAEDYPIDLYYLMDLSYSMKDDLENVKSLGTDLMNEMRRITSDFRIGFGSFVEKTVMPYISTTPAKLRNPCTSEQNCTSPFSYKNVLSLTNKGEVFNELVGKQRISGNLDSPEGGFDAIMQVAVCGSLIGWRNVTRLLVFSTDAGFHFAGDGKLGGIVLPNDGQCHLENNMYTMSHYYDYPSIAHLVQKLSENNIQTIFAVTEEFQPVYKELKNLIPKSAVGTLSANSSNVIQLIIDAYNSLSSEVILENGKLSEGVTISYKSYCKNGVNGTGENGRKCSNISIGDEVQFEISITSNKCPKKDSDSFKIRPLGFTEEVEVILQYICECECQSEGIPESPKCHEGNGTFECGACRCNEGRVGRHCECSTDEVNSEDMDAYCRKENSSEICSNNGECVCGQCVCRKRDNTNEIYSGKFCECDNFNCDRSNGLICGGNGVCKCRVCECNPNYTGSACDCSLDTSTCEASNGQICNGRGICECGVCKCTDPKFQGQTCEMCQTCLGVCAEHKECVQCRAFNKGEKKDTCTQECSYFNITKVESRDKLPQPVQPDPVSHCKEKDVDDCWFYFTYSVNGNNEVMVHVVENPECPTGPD
T1 sequence (P06756 31-992 limits assumed): as the sequence (P06756 31-992 limits assumed) above
T1 sequence (P18564 22-707 limits assumed): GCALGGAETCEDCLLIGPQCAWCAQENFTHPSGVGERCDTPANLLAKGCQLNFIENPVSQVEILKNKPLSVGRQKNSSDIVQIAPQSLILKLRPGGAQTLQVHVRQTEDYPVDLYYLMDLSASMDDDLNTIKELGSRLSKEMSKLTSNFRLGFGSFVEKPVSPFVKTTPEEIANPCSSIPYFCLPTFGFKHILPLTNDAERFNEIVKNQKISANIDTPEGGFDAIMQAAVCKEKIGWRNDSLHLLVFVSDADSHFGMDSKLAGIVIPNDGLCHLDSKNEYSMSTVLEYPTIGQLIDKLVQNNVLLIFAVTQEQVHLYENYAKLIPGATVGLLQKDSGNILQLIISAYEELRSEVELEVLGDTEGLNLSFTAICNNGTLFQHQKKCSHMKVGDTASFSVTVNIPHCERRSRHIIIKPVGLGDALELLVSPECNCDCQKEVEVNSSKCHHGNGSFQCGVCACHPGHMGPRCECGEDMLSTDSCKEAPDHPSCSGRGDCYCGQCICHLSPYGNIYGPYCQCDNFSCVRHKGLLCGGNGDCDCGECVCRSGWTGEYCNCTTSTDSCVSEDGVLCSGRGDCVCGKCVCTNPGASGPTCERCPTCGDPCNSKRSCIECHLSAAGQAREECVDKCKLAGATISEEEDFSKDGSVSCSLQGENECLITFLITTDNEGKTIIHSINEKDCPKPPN
Sequence of human αVβ8 (P06756 31-992 limits assumed): as the sequence (P06756 31-992 limits assumed) above
Sequence of human αVβ8 (P26012 43-684 limits assumed): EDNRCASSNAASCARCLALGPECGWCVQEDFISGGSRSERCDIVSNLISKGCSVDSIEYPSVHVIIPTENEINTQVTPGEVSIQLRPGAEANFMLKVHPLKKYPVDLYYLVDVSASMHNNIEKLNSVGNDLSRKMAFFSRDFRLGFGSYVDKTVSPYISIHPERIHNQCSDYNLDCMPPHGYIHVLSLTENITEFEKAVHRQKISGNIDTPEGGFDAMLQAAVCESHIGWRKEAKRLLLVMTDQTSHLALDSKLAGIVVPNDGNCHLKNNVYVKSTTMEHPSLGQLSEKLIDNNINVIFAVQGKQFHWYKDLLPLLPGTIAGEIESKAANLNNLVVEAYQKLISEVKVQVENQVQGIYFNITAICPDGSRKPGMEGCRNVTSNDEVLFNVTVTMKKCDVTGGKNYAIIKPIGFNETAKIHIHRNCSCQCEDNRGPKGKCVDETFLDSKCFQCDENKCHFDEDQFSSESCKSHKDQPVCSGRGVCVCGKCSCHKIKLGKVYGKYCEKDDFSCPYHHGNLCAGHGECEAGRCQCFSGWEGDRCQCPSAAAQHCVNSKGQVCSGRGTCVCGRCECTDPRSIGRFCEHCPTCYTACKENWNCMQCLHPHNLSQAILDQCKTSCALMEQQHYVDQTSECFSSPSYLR
Sequence of human αVβ5 (P06756 31-992 limits assumed): as the sequence (P06756 31-992 limits assumed) above
Sequence of human αVβ5 (P18084 24-719 limits assumed): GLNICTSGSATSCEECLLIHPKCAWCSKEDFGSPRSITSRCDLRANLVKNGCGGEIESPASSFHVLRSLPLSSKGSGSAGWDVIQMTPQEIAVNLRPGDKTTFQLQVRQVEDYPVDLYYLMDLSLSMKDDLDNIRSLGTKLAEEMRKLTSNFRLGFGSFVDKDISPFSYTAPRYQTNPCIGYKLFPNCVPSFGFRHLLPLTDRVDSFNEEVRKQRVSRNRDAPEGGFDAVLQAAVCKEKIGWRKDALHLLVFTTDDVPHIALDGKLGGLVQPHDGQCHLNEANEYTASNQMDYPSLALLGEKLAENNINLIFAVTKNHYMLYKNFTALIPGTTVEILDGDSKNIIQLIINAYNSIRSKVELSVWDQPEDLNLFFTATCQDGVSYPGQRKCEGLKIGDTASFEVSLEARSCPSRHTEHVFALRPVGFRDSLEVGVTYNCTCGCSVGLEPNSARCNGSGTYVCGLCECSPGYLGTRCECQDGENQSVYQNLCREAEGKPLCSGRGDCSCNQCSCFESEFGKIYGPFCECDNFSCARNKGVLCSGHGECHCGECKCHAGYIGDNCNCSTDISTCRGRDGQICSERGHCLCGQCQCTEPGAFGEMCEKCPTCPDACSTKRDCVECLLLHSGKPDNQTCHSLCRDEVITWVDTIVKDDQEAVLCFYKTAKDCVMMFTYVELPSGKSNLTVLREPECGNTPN

On to `O=C(O)CC(c1ccc2c(c1)CCO2)n1ccc(CCCc2ccc3c(n2)NCCC3)n1` (racemic) [Example 30, (±)-3-(2,3-Dihydrobenzofuran-5-yl)-3-(3-(3-(5,6,7,8-tetrahydro-1,8-naphthyridin-2-yl)propyl)-1H-pyrazol-1-yl)propanoic acid], for which the IC50 on human αVβ5 amounted to 230 nM; on human αVβ6, 5.7 nM; at human αVβ3 it was 11 nM; on human αVβ8, 2010 nM; on human αVβ1 it was 100 nM.

Consider `O=C(O)CC(c1cnc2ccccc2c1)n1ccc(CCCc2ccc3c(n2)NCCC3)n1` (racemic) [Example 29, (±)-3-(Quinolin-3-yl)-3-(3-(3-(5,6,7,8-tetrahydro-1,8-naphthyridin-2-yl)propyl)-1H-pyrazol-1-yl)propanoic acid], for which the IC50 came out at 6.5 nM at human αVβ5; 11.2 nM on human αVβ6; 1.7 nM at human αVβ3; 2900 nM on human αVβ8; 286 nM at human αVβ1.

Usually IC50 stands for the concentration that gives 50% inhibition.
